Data: ChEMBL document CHEMBL4400539, “Discovery of a Novel Chemotype of Histone Lysine Methyltransferase EHMT1/2 (GLP/G9a) Inhibitors: Rational Design, Synthesis, Biological Evaluation, and Co-crystal Structure” (J Med Chem, 2019)

Molecular target: T1, Histone-lysine N-methyltransferase EHMT1 (Homo sapiens) (UniProt Q9H9B1)
T1 sequence (whole entry): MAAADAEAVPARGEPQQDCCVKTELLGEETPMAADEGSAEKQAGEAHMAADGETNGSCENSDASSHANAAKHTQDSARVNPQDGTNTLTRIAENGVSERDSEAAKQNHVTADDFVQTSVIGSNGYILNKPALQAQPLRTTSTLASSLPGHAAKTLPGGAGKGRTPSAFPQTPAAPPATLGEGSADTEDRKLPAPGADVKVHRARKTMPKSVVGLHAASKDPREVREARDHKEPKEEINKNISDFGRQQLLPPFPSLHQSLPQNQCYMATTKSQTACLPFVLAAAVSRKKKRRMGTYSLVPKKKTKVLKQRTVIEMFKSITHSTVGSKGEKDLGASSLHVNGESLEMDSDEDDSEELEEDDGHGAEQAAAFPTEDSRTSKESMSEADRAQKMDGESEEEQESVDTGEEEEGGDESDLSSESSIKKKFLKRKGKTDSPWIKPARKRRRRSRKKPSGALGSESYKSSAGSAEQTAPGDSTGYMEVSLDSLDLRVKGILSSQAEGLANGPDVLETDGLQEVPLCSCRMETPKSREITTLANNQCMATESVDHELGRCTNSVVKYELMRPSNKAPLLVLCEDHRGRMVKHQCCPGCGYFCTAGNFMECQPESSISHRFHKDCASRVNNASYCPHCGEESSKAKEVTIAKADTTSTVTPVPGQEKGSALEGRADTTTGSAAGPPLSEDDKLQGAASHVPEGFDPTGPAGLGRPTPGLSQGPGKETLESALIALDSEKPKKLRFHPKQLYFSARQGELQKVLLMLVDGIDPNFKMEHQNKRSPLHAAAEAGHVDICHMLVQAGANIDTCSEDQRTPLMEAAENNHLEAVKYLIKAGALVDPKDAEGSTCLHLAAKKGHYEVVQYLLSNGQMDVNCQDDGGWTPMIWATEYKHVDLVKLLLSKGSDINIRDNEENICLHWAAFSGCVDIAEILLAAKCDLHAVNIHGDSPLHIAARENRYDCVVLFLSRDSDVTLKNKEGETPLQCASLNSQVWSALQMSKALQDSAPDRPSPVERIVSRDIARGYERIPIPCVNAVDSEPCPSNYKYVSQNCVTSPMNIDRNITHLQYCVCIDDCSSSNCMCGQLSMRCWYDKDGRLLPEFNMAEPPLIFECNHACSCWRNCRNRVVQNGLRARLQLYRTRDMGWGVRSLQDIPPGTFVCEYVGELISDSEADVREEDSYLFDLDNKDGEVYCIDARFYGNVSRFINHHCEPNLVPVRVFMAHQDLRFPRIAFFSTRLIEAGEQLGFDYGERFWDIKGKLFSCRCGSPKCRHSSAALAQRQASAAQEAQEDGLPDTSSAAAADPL
Experiment: Inhibition of recombinant human GLP at 25 uM using biotinylated-Histone H3 peptide (1 to 21 residues) after 30 mins by AlphaLISA assay relative to control

- inhibition: 98%
SMILES: COc1cc2c(cc1OCCCN1CCCC1)N=C(C1CCCCC1)CN=C2NC1CCN(C(C)C)CC1
